Earlier results as cited in PMC10950972, “Relative bioavailability of fedratinib through various alternative oral administration methods in healthy adults” (Cancer Chemotherapy and Pharmacology, 2023).

Experiments:
[1] = set-up: method as in PMID 34480861; conditions: patients; compared with healthy adults and patients with rheumatoid arthritis; cited from earlier work
[2] = set-up: method as in PMID 15598479; conditions: cited from earlier work

For CCS(=O)(=O)N1CC(CC#N)(n2cc(-c3ncnc4[nH]ccc34)cn2)C1 [baricitinib], the “PK after solution of crushed tablets via nasogastric tube vs PK previously reported” value [1] is given as “consistent with PK results previously reported”.
In the case of COc1cc2ncnc(Nc3ccc(F)c(Cl)c3)c2cc1OCCCN1CCOCC1 [gefitinib], the “Differences in bioavailability and PK parameters, intact capsules vs nasogastric administration” value [2] is given as “no clinically significant differences”.
